These results are taken from US10766902B2, “Wee-1 inhibiting pyrazolopyrimidinone compounds” (ALMAC DISCOVERY LIMITED, priority 2016, dated 2020).

The assay addresses Wee-1 kinase (Homo sapiens (Human), UniProt P30291). The assay can be described thus: Measurement of Wee-1 kinase activity (ADP-Glo luminescence). Format: biochemical. The conditions noted are these: read-out: Wee1 IC50. How it is done:
Method 1: Measurement of Wee-1 Kinase Activity
In the measurement of Wee-1 activity, a commercial peptide Poly(Lys Tyr(4:1)) hydrobromide was purchased from Sigma Aldrich and used as the substrate. Activated Wee-1 kinase was purchased from Invitrogen (PV3817) and an ADP-Glo luminescent kit was purchased from Promega.
All reactions took place in […] volumes in reaction buffer containing 40 mM Tris-HCl and 20 mM magnesium chloride, supplemented with 0.1 mg/mL bovine serum albumin and 2 mM DTT. Compounds were serially diluted in buffer and 5 μL of each concentration pipetted into a white 384 well plate (Sigma Aldrich M6186). A 5 μL aliquot of the Wee-1 enzyme was added to each well and the plate centrifuged for 1 min to ensure mixing of the enzyme and inhibitor.
The plate was incubated at room temperature for 30 minutes before the addition of 2.0 μg/mL of substrate and 30 μM ATP in a 5 μL aliquot. The plate was centrifuged for one minute and incubated for 1 h at RT.
15 μL of ADP-Glo stop reagent was added to each well to quench the reaction and deplete unconverted ATP. The plate was incubated for a further 40 min in the dark at RT.
30 μL of ADP-Glo kinase detection reagent was added to each well, converting ADP to ATP, catalysing the generation of luciferin by luciferase. The plate was shaken for 1 min, and incubated in the dark for an additional hour.
Luminescence from each well was detected using the Biotek Synergy4 HD plate reader and the percentage inhibition of kinase activity calculated for each inhibitor tested. Positive (kinase only) and negative (no kinase) controls were added to each plate to ensure specific interaction of kinase and inhibitor. The IC50 concentration for each inhibitor was calculated by plotting the percentage kinase inhibition against concentration of inhibitor and the curve generated by non-linear regression fitting.

The term IC50 denotes the point on the concentration scale where inhibition reaches its midpoint.

Chain of Wee-1 kinase (P30291 whole entry): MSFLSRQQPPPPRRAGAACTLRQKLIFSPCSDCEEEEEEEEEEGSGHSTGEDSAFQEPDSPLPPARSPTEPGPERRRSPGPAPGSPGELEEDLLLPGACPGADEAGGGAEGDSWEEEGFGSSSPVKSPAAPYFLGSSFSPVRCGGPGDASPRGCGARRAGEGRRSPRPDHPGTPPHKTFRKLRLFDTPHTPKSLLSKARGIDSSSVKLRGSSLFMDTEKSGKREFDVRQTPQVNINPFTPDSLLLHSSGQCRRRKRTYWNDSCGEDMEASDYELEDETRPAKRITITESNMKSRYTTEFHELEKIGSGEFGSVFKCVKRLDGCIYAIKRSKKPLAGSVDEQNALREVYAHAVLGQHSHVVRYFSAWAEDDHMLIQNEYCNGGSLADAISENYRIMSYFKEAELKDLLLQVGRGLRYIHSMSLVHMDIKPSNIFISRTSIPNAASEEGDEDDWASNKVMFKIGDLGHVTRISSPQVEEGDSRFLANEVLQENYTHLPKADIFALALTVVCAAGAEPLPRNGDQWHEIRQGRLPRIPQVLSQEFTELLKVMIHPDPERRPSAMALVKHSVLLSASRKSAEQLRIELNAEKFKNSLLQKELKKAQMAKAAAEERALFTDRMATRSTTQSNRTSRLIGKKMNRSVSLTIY

For the compound `C=CCn1c(=O)c2cnc(Nc3ccc4c(c3)CN(C)CC43CC3)nc2n1-c1cccc(N=S(C)(C)=O)n1` [Example 15, 1-(6-{[Dimethyl(oxo)-λ^6-sulfanylidene]amino}pyridine-2-yl)-6-({2′-methyl-2′,3′-dihydro-1′H-spiro[cyclopropane-1,4′-isoquinoline]-7′-yl}amino)-2-(prop-2-en-1-yl)-1H,2H,3H-pyrazolo[3,4-d]pyrimidin-3-one], the IC50 came out at 0.9 nM.

As for `C=CCn1c(=O)c2cnc(Nc3ccc(N4CCN(C)CC4)cc3)nc2n1-c1cccc(N=S(C)(C)=O)c1` [Example 16, 1-(3-{[Dimethyl(oxo)-λ^6-sulfanylidene]amino}phenyl)-6-{[4-(4-methylpiperazin-1-yl)phenyl]amino}-2-(prop-2-en-1-yl)-1H,2H,3H-pyrazolo[3,4-d]pyrimidin-3-one], the concentration for half-maximal inhibition (IC50) came out at 1 nM.

For the compound `C=CCn1c(=O)c2cnc(Nc3ccc(N4C[C@@H](C)N[C@@H](C)C4)cc3)nc2n1-c1cccc(N=S(C)(C)=O)n1` [Example 17, 1-(6-{[Dimethyl(oxo)-λ^6-sulfanylidene]amino}pyridin-2-yl)-6-({4-[(3R,5S)-3,5-dimethylpiperazin-1-yl]phenyl}amino)-2-(prop-2-en-1-yl)-1H,2H,3H-pyrazolo[3,4-d]pyrimidin-3-one], the IC50 amounted to 1.1 nM.

Consider `C=CCn1c(=O)c2cnc(Nc3ccc(N4CCNCC4)cc3)nc2n1-c1cccc(N=S(C)(C)=O)c1` [Example 18, 1-(3-{[Dimethyl(oxo)-λ^6-sulfanylidene]amino}phenyl)-6-{[4-(piperazin-1-yl)phenyl]amino}-2-(prop-2-en-1-yl)-1H,2H,3H-pyrazolo[3,4-d]pyrimidin-3-one], for which the IC50 turned out to be 0.8 nM.

As to `C=CCn1c(=O)c2cnc(Nc3ccccc3)nc2n1-c1cccc(N=S(C)(C)=O)n1` [Example 19, 1-(6-{[Dimethyl(oxo)-λ^6-sulfanylidene]amino}pyridin-2-yl)-6-(phenylamino)-2-(prop-2-en-1-yl)-1H,2H,3H-pyrazolo[3,4-d]pyrimidin-3-one], the IC50 was 1 nM.

Consider `C=CCn1c(=O)c2cnc(Nc3ccc(N4CCOCC4)c(CNC)c3)nc2n1-c1cccc(N=S(C)(C)=O)c1` [Example 22, 1-(3-{[Dimethyl(oxo)-λ^6-sulfanylidene]amino}phenyl)-6-({3-[(methylamino)methyl]-4-(morpholin-4-yl)phenyl}amino)-2-(prop-2-en-1-yl)-1H,2H,3H-pyrazolo[3,4-d]pyrimidin-3-one], for which the IC50 amounted to 2.6 nM.

For `C=CCn1c(=O)c2cnc(Nc3ccc(N4CCN(C)CC4)cc3)nc2n1-c1cccc(N=S2(=O)CCCC2)n1` [Example 23, 2-Allyl-6-((4-(4-methylpiperazin-1-yl)phenyl)amino)-1-(6-((1-oxidotetrahydrothiophen-1-ylidene)amino)pyridin-2-yl)-1H-pyrazolo[3,4-d]pyrimidin-3(2H)-one], the IC50 came out at 0.9 nM.

Consider `C=CCn1c(=O)c2cnc(Nc3ccc(N4CCN(C)CC4)c(OC)c3)nc2n1-c1cccc(N=S(C)(C)=O)n1` [Example 24, 1-(6-{[Dimethyl(oxo)-λ^6-sulfanylidene]amino}pyridin-2-yl)-6-{[3-methoxy-4-(4-methylpiperazin-1-yl)phenyl]amino}-2-(prop-2-en-1-yl)-1H,2H,3H-pyrazolo[3,4-d]pyrimidin-3-one], for which the IC50 amounted to 1.4 nM.

As for `C=CCn1c(=O)c2cnc(Nc3ccc(N4CCOCC4)c(OC)c3)nc2n1-c1cccc(N=S(C)(C)=O)n1` [Example 25, 1-(6-{[Dimethyl(oxo)-λ^6-sulfanylidene]amino}pyridin-2-yl)-6-{[3-methoxy-4-(morpholin-4-yl)phenyl]amino}-2-(prop-2-en-1-yl)-1H,2H,3H-pyrazolo[3,4-d]pyrimidin-3-one], the IC50 is 0.7 nM.

Turning to `C=CCn1c(=O)c2cnc(Nc3ccc(OCCNC)cc3)nc2n1-c1cccc(N=S(C)(C)=O)c1` [Example 27, 1-(3-{[Dimethyl(oxo)-λ^6-sulfanylidene]amino}phenyl)-6-({4-[2-(methylamino)ethoxy]phenyl}amino)-2-(prop-2-en-1-yl)-1H,2H,3H-pyrazolo[3,4-d]pyrimidin-3-one], the half-inhibitory concentration (IC50) was 1.7 nM.

Regarding `C=CCn1c(=O)c2cnc(Nc3ccc(N4CCN(C)CC4)c(C)c3)nc2n1-c1cccc(N=S(C)(C)=O)n1` [Example 28, 1-(6-{[Dimethyl(oxo)-λ^6-sulfanylidene]amino}pyridin-2-yl)-6-{[3-methyl-4-(4-methylpiperazin-1-yl)phenyl]amino}-2-(prop-2-en-1-yl)-1H,2H,3H-pyrazolo[3,4-d]pyrimidin-3-one], the IC50 was found to be 0.7 nM.

Regarding `C=CCn1c(=O)c2cnc(Nc3ccc(N4CCNCC4)c(CO)c3)nc2n1-c1cccc(N=S(C)(C)=O)c1` [Example 29, 1-(3-{[Dimethyl(oxo)-λ^6-sulfanylidene]amino}phenyl)-6-{[3-(hydroxymethyl)-4-(piperazin-1-yl)phenyl]amino}-2-(prop-2-en-1-yl)-1H,2H,3H-pyrazolo[3,4-d]pyrimidin-3-one], the IC50 is 0.9 nM.

On to `C=CCn1c(=O)c2cnc(Nc3ccc(N4CCN(C)CC4)c(CO)c3)nc2n1-c1cccc(N=S(C)(C)=O)c1` [Example 30, 1-(3-{[Dimethyl(oxo)-λ^6-sulfanylidene]amino}phenyl)-6-{[3-(hydroxymethyl)-4-(4-methylpiperazin-1-yl)phenyl]amino}-2-(prop-2-en-1-yl)-1H,2H,3H-pyrazolo[3,4-d]pyrimidin-3-one], for which the IC50 is 0.5 nM.

As to `C=CCn1c(=O)c2cnc(Nc3ccc(N4CCOCC4)cc3)nc2n1-c1cccc(N=S(C)(C)=O)c1` [Example 31, 1-(3-{[Dimethyl(oxo)-λ^6-sulfanylidene]amino}phenyl)-6-{[4-(morpholin-4-yl)phenyl]amino}-2-(prop-2-en-1-yl)-1H,2H,3H-pyrazolo[3,4-d]pyrimidin-3-one], the IC50 stood at 1.4 nM.

Take `C=CCn1c(=O)c2cnc(Nc3ccc(N4C[C@@H](C)O[C@@H](C)C4)cc3)nc2n1-c1cccc(N=S(C)(C)=O)n1` [Example 32, 1-(6-{[Dimethyl(oxo)-λ^6-sulfanylidene]amino}pyridin-2-yl)-6-{4-([(2S,6R)-2,6-dimethylmorpholin-4-yl]phenyl)amino}-2-(prop-2-en-1-yl)-1H,2H,3H-pyrazolo[3,4-d]pyrimidin-3-one]: the IC50 was found to be 0.5 nM.

Take `C=CCn1c(=O)c2cnc(Nc3ccc(N4CCC(F)(F)CC4)cc3)nc2n1-c1cccc(N=S(C)(C)=O)n1` [Example 34, 1-(6-{[Dimethyl(oxo)-λ^6-sulfanylidene]amino}pyridin-2-yl)-6-{[4-(4,4-difluoropiperidin-1-yl)phenyl]amino}-2-(prop-2-en-1-yl)-1H,2H,3H-pyrazolo[3,4-d]pyrimidin-3-one]: the IC50 came out at 4.6 nM.

`C=CCn1c(=O)c2cnc(Nc3cccc(N4CCOCC4)c3)nc2n1-c1cccc(N=S(C)(C)=O)n1` [Example 35, 1-(6-{[Dimethyl(oxo)-λ^6-sulfanylidene]amino}pyridin-2-yl)-6-{[3-(morpholin-4-yl)phenyl]amino}-2-(prop-2-en-1-yl)-1H,2H,3H-pyrazolo[3,4-d]pyrimidin-3-one]: the IC50 turned out to be 0.6 nM.

In the case of `C=CCn1c(=O)c2cnc(Nc3ccc(N4CC5CCC(C4)O5)cc3)nc2n1-c1cccc(N=S(C)(C)=O)n1` [Example 36, 1-(6-{[Dimethyl(oxo)-λ^6-sulfanylidene]amino}pyridin-2-yl)-6-{[4-(8-oxa-3-azabicyclo[3.2.1]octan-3-yl)phenyl]amino}-2-(prop-2-en-1-yl)-1H,2H,3H-pyrazolo[3,4-d]pyrimidin-3-one], the IC50 was 0.1 nM.

In the case of `C=CCn1c(=O)c2cnc(Nc3cnn(C)c3)nc2n1-c1cccc(N=S(C)(C)=O)n1` [Example 37, 1-(6-{[Dimethyl(oxo)-λ^6-sulfanylidene]amino}pyridin-2-yl)-6-[(1-methyl-1H-pyrazol-4-yl)amino]-2-(prop-2-en-1-yl)-1H,2H,3H-pyrazolo[3,4-d]pyrimidin-3-one], the IC50 amounted to 1.3 nM.

Take `CCCn1c(=O)c2cnc(Nc3ccc(N4CCOCC4)cc3)nc2n1-c1cccc(N=S(C)(C)=O)n1` [Example 38, 1-(6-{[Dimethyl(oxo)-λ^6-sulfanylidene]amino}pyridin-2-yl)-6-{[4-(morpholin-4-yl)phenyl]amino}-2-propyl-1H,2H,3H-pyrazolo[3,4-d]pyrimidin-3-one]: the IC50 is 0.8 nM.

Regarding `CCCn1c(=O)c2cnc(Nc3ccc(N4CCOCC4)nc3)nc2n1-c1cccc(N=S(C)(C)=O)n1` [Example 39, 1-(6-{[Dimethyl(oxo)-λ^6-sulfanylidene]amino}pyridin-2-yl)-6-{[6-(morpholin-4-yl)pyridin-3-yl]amino}-2-propyl-1H,2H,3H-pyrazolo[3,4-d]pyrimidin-3-one], the IC50 was determined as 1.7 nM.

For the compound `C=CCn1c(=O)c2cnc(Nc3ccc(F)cc3)nc2n1-c1cccc(N=S(C)(C)=O)n1` [Example 40, 1-(6-{[Dimethyl(oxo)-λ^6-sulfanylidene]amino}pyridin-2-yl)-6-[(4-fluorophenyl)amino]-2-(prop-2-en-1-yl)-1H,2H,3H-pyrazolo[3,4-d]pyrimidin-3-one], the IC50 was 0.2 nM.
